# Data reported in ChEMBL document CHEMBL3872242, “Anti-inflammatory tetraquinane diterpenoids from a Crinipellis species” (Bioorg Med Chem, 2017).
# Activity calls are given as the source filed them. The rule behind the calls is not given here.
# Experiments:
# MONO-MAC-6 [1] = assay: Inhibition of CCL1 mRNA expression in LPS/INF-gamma stimulated human MONO-MAC-6 cells at 3.8 uM preincubated for 1 hr followed by LPS/INF-gamma stimulation measured after 16 hrs; assay type: functional, cell-based
# [2] = Down regulation of COX-2 mRNA expression in LPS/INF-gamma stimulated human MONO-MAC-6 cells at 3.8 uM preincubated for 1 hr followed by LPS/INF-gamma stimulation measured after 4 hrs by quantitative RT-PCR analysis; assay type: functional, cell-based
# [3] = Cytotoxicity against human MONO-MAC-6 cells up to 50 uM measured after 24 hrs by XTT assay; assay type: toxicity, cell-based; conditions: mono-mac-6, 24 h
# [4] = Down regulation of […] mRNA expression in LPS/INF-gamma stimulated human MONO-MAC-6 cells at 3.8 uM preincubated for 1 hr followed by LPS/INF-gamma stimulation measured after 4 hrs by quantitative RT-PCR analysis; assay type: functional, cell-based
# [5] = Inhibition of IRF (unknown origin) expressed in LPS/INF-gamma-stimulated human MONO-MAC-6 cells assessed as reduction in ISRE dependent transcription activity measured after 4 hrs by luciferase reporter gene assay; assay type: cell-based; conditions: MONO-MAC-6, 4 h
# MONO-MAC-6 [6] = assay: Inhibition of LPS/INF-gamma induced CXCL10 promoter dependent transcription activity in human MONO-MAC-6 cells measured after 4 hrs by luciferase reporter gene assay; assay type: functional
# MONO-MAC-6 [7] = assay: Inhibition of IL-6 mRNA expression in LPS/INF-gamma stimulated human MONO-MAC-6 cells at 3.8 uM preincubated for 1 hr followed by LPS/INF-gamma stimulation measured after 16 hrs; assay type: functional, cell-based
# MONO-MAC-6 [8] = assay: Inhibition of CXCL10 mRNA expression in LPS/INF-gamma stimulated human MONO-MAC-6 cells at 3.8 uM preincubated for 1 hr followed by LPS/INF-gamma stimulation measured after 16 hrs; assay type: functional, cell-based
# MONO-MAC-6 [9] = assay: Inhibition of CXCL1 mRNA expression in LPS/INF-gamma stimulated human MONO-MAC-6 cells at 3.8 uM preincubated for 1 hr followed by LPS/INF-gamma stimulation measured after 16 hrs; assay type: functional, cell-based
# MONO-MAC-6 [10] = assay: Inhibition of IL-23 mRNA expression in LPS/INF-gamma stimulated human MONO-MAC-6 cells at 3.8 uM preincubated for 1 hr followed by LPS/INF-gamma stimulation measured after 16 hrs; assay type: functional, cell-based
# [11] = Down regulation of TNF-alpha mRNA expression in LPS/INF-gamma stimulated human MONO-MAC-6 cells at 3.8 uM preincubated for 1 hr followed by LPS/INF-gamma stimulation measured after 4 hrs by quantitative RT-PCR analysis; assay type: functional, cell-based
# MONO-MAC-6 [12] = assay: Inhibition of CCL3 mRNA expression in LPS/INF-gamma stimulated human MONO-MAC-6 cells at 3.8 uM preincubated for 1 hr followed by LPS/INF-gamma stimulation measured after 16 hrs; assay type: functional, cell-based
# MONO-MAC-6 [13] = assay: Inhibition of TNF-alpha mRNA expression in LPS/INF-gamma stimulated human MONO-MAC-6 cells at 3.8 uM preincubated for 1 hr followed by LPS/INF-gamma stimulation measured after 16 hrs; assay type: functional, cell-based
# [14] = Down regulation of IL-6 mRNA expression in LPS/INF-gamma stimulated human MONO-MAC-6 cells at 3.8 uM preincubated for 1 hr followed by LPS/INF-gamma stimulation measured after 4 hrs by quantitative RT-PCR analysis; assay type: functional, cell-based
# [15] = Effect on constitutive activity of EF-1alpha expressed in human MONO-MAC-6 cells up to 50 uM measured after 4 hrs by luciferase reporter gene assay; assay type: ADME, cell-based; conditions: mono-mac-6, 4 h
# MONO-MAC-6 [16] = assay: Inhibition of IL-8 mRNA expression in LPS/INF-gamma stimulated human MONO-MAC-6 cells at 3.8 uM preincubated for 1 hr followed by LPS/INF-gamma stimulation measured after 16 hrs; assay type: functional, cell-based
# [17] = Down regulation of IL-8 mRNA expression in LPS/INF-gamma stimulated human MONO-MAC-6 cells at 3.8 uM preincubated for 1 hr followed by LPS/INF-gamma stimulation measured after 4 hrs by quantitative RT-PCR analysis; assay type: functional, cell-based
# [18] = Effect on GAPDH mRNA expression in human MONO-MAC-6 cells at 2.52 to 3.8 uM preincubated for 1 hr followed by LPS/INF-gamma stimulation measured after 4 hrs by quantitative RT-PCR analysis; assay type: ADME, cell-based; conditions: mono-mac-6, 4 h
# MONO-MAC-6 [19] = assay: Inhibition of human THP1 cells derived IL-8 promoter dependent transcription activity expressed in LPS/INF-gamma stimulated human MONO-MAC-6 cells measured after 4 hrs by luciferase reporter gene assay; assay type: functional, cell-based; conditions: MONO-MAC-6, 4 h
# [20] = Inhibition of NF-kappaB (unknown origin) expressed in LPS/INF-gamma-stimulated human MONO-MAC-6 cells measured after 4 hrs by luciferase reporter gene assay; assay type: cell-based; conditions: MONO-MAC-6, 4 h
# [21] = Down regulation of CCL2 mRNA expression in LPS/INF-gamma stimulated human MONO-MAC-6 cells at 3.8 uM preincubated for 1 hr followed by LPS/INF-gamma stimulation measured after 4 hrs by quantitative RT-PCR analysis; assay type: functional, cell-based
# MONO-MAC-6 [22] = assay: Inhibition of CXCL11 mRNA expression in LPS/INF-gamma stimulated human MONO-MAC-6 cells at 3.8 uM preincubated for 1 hr followed by LPS/INF-gamma stimulation measured after 16 hrs; assay type: functional, cell-based
# MONO-MAC-6 [23] = assay: Inhibition of IL-6 mRNA expression in LPS/INF-gamma stimulated human MONO-MAC-6 cells at 16.54 uM preincubated for 1 hr followed by LPS/INF-gamma stimulation measured after 16 hrs; assay type: functional, cell-based
# MONO-MAC-6 [24] = assay: Inhibition of TNF-alpha mRNA expression in LPS/INF-gamma stimulated human MONO-MAC-6 cells at 16.54 uM preincubated for 1 hr followed by LPS/INF-gamma stimulation measured after 16 hrs; assay type: functional, cell-based
# [25] = Effect on GAPDH mRNA expression in human MONO-MAC-6 cells at 3.31 to 16.54 uM preincubated for 1 hr followed by LPS/INF-gamma stimulation measured after 4 hrs by quantitative RT-PCR analysis; assay type: ADME, cell-based; conditions: mono-mac-6, 4 h
# [26] = Down regulation of COX-2 mRNA expression in LPS/INF-gamma stimulated human MONO-MAC-6 cells at 16.54 uM preincubated for 1 hr followed by LPS/INF-gamma stimulation measured after 4 hrs by quantitative RT-PCR analysis; assay type: functional, cell-based
# [27] = Down regulation of IL-8 mRNA expression in LPS/INF-gamma stimulated human MONO-MAC-6 cells at 16.54 uM preincubated for 1 hr followed by LPS/INF-gamma stimulation measured after 4 hrs by quantitative RT-PCR analysis; assay type: functional, cell-based
# MONO-MAC-6 [28] = assay: Inhibition of IL-8 mRNA expression in LPS/INF-gamma stimulated human MONO-MAC-6 cells at 16.54 uM preincubated for 1 hr followed by LPS/INF-gamma stimulation measured after 16 hrs; assay type: functional, cell-based
# MONO-MAC-6 [29] = assay: Inhibition of CXCL10 mRNA expression in LPS/INF-gamma stimulated human MONO-MAC-6 cells at 16.54 uM preincubated for 1 hr followed by LPS/INF-gamma stimulation measured after 16 hrs; assay type: functional, cell-based
# MONO-MAC-6 [30] = assay: Inhibition of CXCL11 mRNA expression in LPS/INF-gamma stimulated human MONO-MAC-6 cells at 16.54 uM preincubated for 1 hr followed by LPS/INF-gamma stimulation measured after 16 hrs; assay type: functional, cell-based
# MONO-MAC-6 [31] = assay: Inhibition of CCL3 mRNA expression in LPS/INF-gamma stimulated human MONO-MAC-6 cells at 16.54 uM preincubated for 1 hr followed by LPS/INF-gamma stimulation measured after 16 hrs; assay type: functional, cell-based
# [32] = Down regulation of TNF-alpha mRNA expression in LPS/INF-gamma stimulated human MONO-MAC-6 cells at 16.54 uM preincubated for 1 hr followed by LPS/INF-gamma stimulation measured after 4 hrs by quantitative RT-PCR analysis; assay type: functional, cell-based
# MONO-MAC-6 [33] = assay: Inhibition of IL-23 mRNA expression in LPS/INF-gamma stimulated human MONO-MAC-6 cells at 16.54 uM preincubated for 1 hr followed by LPS/INF-gamma stimulation measured after 16 hrs; assay type: functional, cell-based
# [34] = Down regulation of IL-6 mRNA expression in LPS/INF-gamma stimulated human MONO-MAC-6 cells at 16.54 uM preincubated for 1 hr followed by LPS/INF-gamma stimulation measured after 4 hrs by quantitative RT-PCR analysis; assay type: functional, cell-based
# [35] = Downregulation of CXCL10 mRNA expression in human MONO-MAC-6 cells at 16.54 uM preincubated for 1 hr followed by LPS/INF-gamma stimulation measured after 4 hrs by quantitative RT-PCR analysis; assay type: functional, cell-based
# [36] = Down regulation of CCL2 mRNA expression in LPS/INF-gamma stimulated human MONO-MAC-6 cells at 16.54 uM preincubated for 1 hr followed by LPS/INF-gamma stimulation measured after 4 hrs by quantitative RT-PCR analysis; assay type: functional, cell-based
# MONO-MAC-6 [37] = assay: Inhibition of CCL1 mRNA expression in LPS/INF-gamma stimulated human MONO-MAC-6 cells at 16.54 uM preincubated for 1 hr followed by LPS/INF-gamma stimulation measured after 16 hrs; assay type: functional, cell-based
# MONO-MAC-6 [38] = assay: Inhibition of CXCL1 mRNA expression in LPS/INF-gamma stimulated human MONO-MAC-6 cells at 16.54 uM preincubated for 1 hr followed by LPS/INF-gamma stimulation measured after 16 hrs; assay type: functional, cell-based
smiles,measurement,setting,value
CC(C)[C@H]1CC[C@]23C[C@@H]4[C@H](C)C(=O)[C@H]5O[C@]54[C@@]2(C)CC(=O)[C@]13C,inhibition,MONO-MAC-6 [1],Active
same,Activity,[2],Active
same,Activity,[3],Non-Toxic
same,Activity,[4],Active
same,IC50,[5],800 to 1000 nM
same,inhibition,MONO-MAC-6 [6],Dose-dependent effect
same,inhibition,MONO-MAC-6 [7],Active
same,inhibition,MONO-MAC-6 [8],Active
same,inhibition,MONO-MAC-6 [9],Active
same,inhibition,MONO-MAC-6 [10],Active
same,Activity,[11],Active
same,inhibition,MONO-MAC-6 [12],Active
same,inhibition,MONO-MAC-6 [13],Active
same,Activity,[14],Active
same,Activity,[15],Non-Toxic
same,inhibition,MONO-MAC-6 [16],Active
same,Activity,[17],Active
same,Activity,[18],Non-Toxic
same,IC50,MONO-MAC-6 [19],900 to 1200 nM
same,IC50,[20],320 to 400 nM
same,Activity,[21],Active
same,inhibition,MONO-MAC-6 [22],Active
C=C[C@H]1CC[C@]23C[C@@H]4[C@H](C)C(=O)[C@H]5O[C@]54[C@@]2(C)C[C@H](O)[C@]13C,inhibition,MONO-MAC-6 [23],Active
same,inhibition,MONO-MAC-6 [24],Active
same,Activity,[25],Non-Toxic
same,Activity,[3],Non-Toxic
same,Activity,[26],Active
same,Activity,[27],Active
same,inhibition,MONO-MAC-6 [28],Active
same,inhibition,MONO-MAC-6 [29],Active
same,IC50,[5],1000 to 1200 nM
same,inhibition,MONO-MAC-6 [6],Dose-dependent effect
same,inhibition,MONO-MAC-6 [30],Active
same,inhibition,MONO-MAC-6 [31],Active
same,Activity,[15],Non-Toxic
same,Activity,[32],Active
same,inhibition,MONO-MAC-6 [33],Active
same,IC50,MONO-MAC-6 [19],1300 to 1500 nM
same,Activity,[34],Active
same,IC50,[20],2700 to 3000 nM
same,Activity,[35],Active
same,Activity,[36],Active
same,inhibition,MONO-MAC-6 [37],Active
same,inhibition,MONO-MAC-6 [38],Active
